{"source": "patent US8158389B2", "about": "“Products and methods for in vivo secretion of monatin” (priority 2005, dated 2012)", "key": {"[1]": {"test_system": "E. coli MG1655::pCECNde/4978 DAT/SEQ ID NO. 42", "assay": "R,R monatin excreted by E. coli with D-amino acid treatment", "assay_type": "cell-based, Escherichia coli", "settings": "5 mM D-amino acid treatment added 3 hours following induction", "protocol": "For inoculum preparation, the E. coli MG1655 : : pCECNde/4978 DAT/SEQ ID NO. 42 were grown overnight at 37° C. with shaking at 250 rpm in Luria-Bertani (“LB”) medium with 25 μg/mL chloramphenicol. For the experimental treatments, Trp-1+glucose medium, a minimal medium that has been used for increased production of tryptophan in E. coli cells (Zeman et al. Folia Microbiol. 35:200-4, 1990), was prepared as follows. To 800 mL nanopure water the following reagents were added: 2 g (NH4)2SO4, 13.6 g KH2PO4. The pH was adjusted to 7.0, the volume was increased to 948 mL, and the medium was autoclaved. Following sterilization, 0.2 g MgSO4.7H2O, 0.01 g CaCl2.2H2O, and 0.5 mg FeSO4.7H2O were added to the medium in a 1.8 mL volume followed by addition of 0.2 mL of Neidhardt's micronutrient solution (Neidhardt F. C., Bloch P. L., and Smith D. F., 1974. Culture medium for Enterobacteria. J. Bacteriol. 119: 736-746). Neidhardt's medium includes (per liter): 0.18 g (NH4)6(MO7)24.4H2O, 1.24 g H3BO3, 0.36 g CoCl2.6H2O, 0.12 g CuSO4 (anhydrous), 0.8 g MnCl2.4H2O, and 0.14 g ZnSO4.7H2O. A 50% glucose solution was prepared separately and sterile-filtered. […]\nThe monatin from the 48 hour samples was concentrated via a solid phase extraction (“SPE”) column (see Example 27). Then, the R,R and S,S stereoisomers were analyzed by the method of Example 13."}, "EmrAB efflux pump": {"molecular_target": "T1, EmrAB efflux pump (Escherichia coli, UniProt P0AEJ0)", "T1 construct": "endogenous in cells; host or cells: E. coli MG1655 with aspC/proA on pProNde; E. coli BL21 (DE3) with aspC/proA on pET30", "T1 sequence (P02930 23-493)": "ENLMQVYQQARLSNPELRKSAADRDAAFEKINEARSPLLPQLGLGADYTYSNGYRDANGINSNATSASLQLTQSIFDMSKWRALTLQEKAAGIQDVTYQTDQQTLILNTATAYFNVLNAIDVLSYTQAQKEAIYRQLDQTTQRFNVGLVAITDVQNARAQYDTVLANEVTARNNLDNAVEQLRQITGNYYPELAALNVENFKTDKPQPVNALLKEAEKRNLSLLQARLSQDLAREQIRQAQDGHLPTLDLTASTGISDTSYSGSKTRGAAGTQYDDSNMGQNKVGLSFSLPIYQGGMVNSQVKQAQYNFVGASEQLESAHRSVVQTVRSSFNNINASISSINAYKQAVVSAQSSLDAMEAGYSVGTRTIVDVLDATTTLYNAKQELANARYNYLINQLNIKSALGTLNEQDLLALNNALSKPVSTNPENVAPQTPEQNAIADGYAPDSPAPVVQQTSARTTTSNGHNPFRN", "T1 sequence (P0AEJ0 whole entry)": "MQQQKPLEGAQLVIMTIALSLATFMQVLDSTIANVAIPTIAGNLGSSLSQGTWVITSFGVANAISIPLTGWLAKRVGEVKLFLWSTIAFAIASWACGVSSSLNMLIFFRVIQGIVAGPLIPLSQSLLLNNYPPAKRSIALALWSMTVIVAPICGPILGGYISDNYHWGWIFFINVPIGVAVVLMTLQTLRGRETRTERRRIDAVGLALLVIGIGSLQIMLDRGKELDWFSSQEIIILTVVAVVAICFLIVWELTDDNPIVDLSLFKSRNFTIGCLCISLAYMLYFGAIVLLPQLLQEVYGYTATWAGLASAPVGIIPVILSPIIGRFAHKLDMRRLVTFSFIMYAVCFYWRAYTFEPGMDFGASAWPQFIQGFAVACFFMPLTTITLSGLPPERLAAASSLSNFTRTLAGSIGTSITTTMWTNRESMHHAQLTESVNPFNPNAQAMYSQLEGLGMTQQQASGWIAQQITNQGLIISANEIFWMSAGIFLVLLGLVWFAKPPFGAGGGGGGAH", "T1 sequence (P27303 whole entry, further chain)": "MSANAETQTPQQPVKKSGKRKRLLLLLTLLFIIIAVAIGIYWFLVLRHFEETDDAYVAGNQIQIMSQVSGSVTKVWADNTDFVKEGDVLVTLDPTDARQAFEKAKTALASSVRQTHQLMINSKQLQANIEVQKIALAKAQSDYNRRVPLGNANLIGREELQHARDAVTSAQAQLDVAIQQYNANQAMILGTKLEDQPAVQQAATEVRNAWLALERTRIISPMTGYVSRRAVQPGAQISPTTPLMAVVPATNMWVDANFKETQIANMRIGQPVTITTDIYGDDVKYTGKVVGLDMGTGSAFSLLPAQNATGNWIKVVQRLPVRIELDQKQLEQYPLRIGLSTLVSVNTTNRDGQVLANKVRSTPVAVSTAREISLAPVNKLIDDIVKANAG", "assay": "Monatin efflux per dry cell weight after induction of the EmrAB efflux pump with CCCP", "assay_type": "cell-based", "settings": "for increase in monatin/dcw: 31 hours, vs control", "protocol": "The strains used for the experiment included E. coli MG1655 : : aspC/proA/pProNde and E. coli BL21 (DE3) : : aspC/proA/pET30. For inoculum, the E. coli strains were grown overnight at 37° C. and 250 rpm in Luria-Bertani (“LB”) medium with 50 μg/mL kanamycin.\nFor the experimental treatments, Trp-1+ glucose medium, a minimal medium that has been used for increased production of tryptophan in E. coli cells (Zeman, et al. Folia Microbiol. 35:200-204, (1990)), was prepared as follows. To 800 mL nanopure water the following reagents were added: 2 g (NH4)2SO4 and 13.6 g KH2PO4. The pH was adjusted to 7.0, the volume was increased to 948 mL, and the medium was autoclaved. Following sterilization, 0.2 g MgSO4.7H2O, 0.01 g CaCl2.2H2O, and 0.5 mg FeSO4.7H2O were added to the medium in a 1.8 mL volume followed by addition of 0.2 mL of Neidhardt's micronutrient solution. Neidhardt, F. C., et al., “Culture medium for Enterobacteria,” J. Bacteriol. 119:736-746 (1974). Neidhardt's medium includes (per liter): 0.18 g (NH4)6(MO7)24.4H2O, 1.24 g H3BO3, 0.36 g CoCl2.6H2O, 0.12 g CuSO4 (anhydrous), 0.8 g MnCl2.4H2O, and 0.14 g ZnSO4.7H2O. A 50% glucose solution was prepared separately and sterile-filtered. Forty mL of glucose solution and 10 mL of 1 M 3-Morpholinopropanesulfonic acid (“MOPS”) buffer were added to the base medium (950 mL) for a 1 L final volume.\nConditions for the treatments included 250 rpm agitation throughout and 37° C. up to induction, then, 30° C. following induction. At 0.5-0.6 OD600 nm, induction of the plasmid genes was initiated. At induction, 0.5 mM IPTG, 0.5% arabinose, 0.5 mM pyridoxine hydrochloride, and 0.2 mL of Balch's vitamins were added. […] Some treatments included 10 μM carbonyl cyanide 3-chlorophenylhydrazone (“CCCP”) addition to initial medium. One treatment included an additional 10 μM CCCP dose at 3.5 hours following induction. CCCP induces the EmrB efflux system. Samples for monatin analysis and dry cell weight determination were taken at 10, 15.5, 25.6 and 31 hours. Monatin analysis was preformed as described in Example 13.\nAnalyses of mixtures for monatin and tryptophan derived from in vitro or in vivo biochemical reactions were performed using a Waters/Micromass liquid chromatography-tandem mass spectrometry (“LC/MS/MS”) instrument including a Waters 2795 liquid chromatograph with a Waters 996 Photo-Diode Array (PDA) absorbance monitor placed in series between the chromatograph and a Micromass Quattro Ultima triple quadrupole mass spectrometer. LC separations were made using an Xterra MS C8 reversed-phase chromatography column, 2.1 mm×250 mm at 40° C. The LC mobile phase consisted of A) water containing 0.05% (v/v) trifluoroacetic acid and B) methanol containing 0.05% (v/v) trifluoroacetic acid.\nThe gradient elution was linear from 5% B to 35% B, 0-4 min, linear from 35% B to 60% B, 4-6.5 min, linear from 60% B to 90% B, 6.5-7 min, isocratic at 90% B 7-11 min, linear from 90% B to 95% B, 11-12 min, linear from 95% B to 5% B, 12-13 min, with a 5 min re-equilibration period between runs. The flow rate was 0.25 mL/min, and PDA absorbance was monitored from 200 nm to 400 nm. All parameters of the ESI-MS were optimized and selected based on generation of protonated molecular ions ([M+H]^+) of the analytes of interest, and production of characteristic fragment ions. The following instrumental parameters were used for LC/MS/MS Multiple Reaction Monitoring (“MRM”) analysis of monatin and tryptophan: Capillary: 3.5 kV; Cone: 40 V; Hex 1: 20 V; Aperture: 0 V; Hex 2: 0 V; Source temperature: 100° C.; Desolvation temperature: 350° C.; Desolvation gas: 500 L/h; Cone gas: 50 L/h; Low mass resolution (Q1): 12.0; High mass resolution (Q1): 12.0; Ion energy: 0.2; Entrance: −5 V; Collision Energy: 8; Exit: 1V; Low mass resolution (Q2): 15; High mass resolution (Q2): 15; Ion energy (Q2): 3.5; Multiplier: 650. […]"}, "[2]": {"test_system": "E. coli BL21DE3ΔemrB::aspCproApET30", "assay": "Growth (optical density) with CCCP, emrB knockout mutant", "assay_type": "cell-based, Escherichia coli", "settings": "20 μM CCCP", "protocol": "(§1) Single chloramphenicol-resistant colonies were purified by restreaking on appropriate selective media and single colonies were tested by PCR as previously described for the BW25113 knockout strains, to verify the presence of the emrB and acrAB knockouts. The effects of the emrB and acrAB knockouts on the EmrAB and AcrAB transporter systems respectively were determined by assessing the phenotype of the transport mutants using appropriate antibiotics and comparison to wild type control microorganisms as shown in Table 3.1 and Table 3.2 below."}, "[3]": {"test_system": "E. coli BL21DE3::aspCproApET30", "assay": "Growth (optical density) with CCCP, wild type control", "assay_type": "cell-based, Escherichia coli", "settings": "20 μM CCCP", "protocol": "as §1"}, "[4]": {"settings": "E. coli BL21 (DE3)::aspCproA pET30, 10 μM CCCP"}, "[5]": {"settings": "E. coli BL21 (DE3)::aspCproA pET30, 10 μM CCCP + 10 μM CCCP"}, "[6]": {"settings": "E. coli MG1655::aspCproA pProNde, 10 μM CCCP"}}, "data": [{"smiles": "N[C@H](CCC(=O)O)C(=O)O", "note": "[D-glutamate]", "values": [{"measurement": "48 hour Monatin/dry cell wt., Total Monatin", "setting": "[1]", "result": 0.47, "unit": "mg/g"}]}, {"smiles": "N#CC(C#N)=NNc1cccc(Cl)c1", "note": "[CCCP, carbonyl cyanide 3-chlorophenylhydrazone]", "values": [{"measurement": "increase in monatin/dcw", "setting": "EmrAB efflux pump; E. coli BL21 (DE3)::aspC proA pET30, one addition (10 μM) of CCCP", "result": "greater than 1.8 fold"}, {"measurement": "increase in monatin/dcw", "setting": "EmrAB efflux pump; E. coli BL21 (DE3)::aspC proA pET30, two additions (20 μM) of CCCP", "result": "> 3.5", "unit": "fold"}, {"measurement": "Monatin/dry cell weight at run hour 10", "setting": "EmrAB efflux pump; [4]", "result": 6.4, "unit": "mg/g"}, {"measurement": "Monatin/dry cell weight at run hour 15.5", "setting": "EmrAB efflux pump; [4]", "result": 22.5, "unit": "mg/g"}, {"measurement": "Monatin/dry cell weight at run hour 25.6", "setting": "EmrAB efflux pump; [4]", "result": 34.3, "unit": "mg/g"}, {"measurement": "Monatin/dry cell weight at run hour 31", "setting": "EmrAB efflux pump; [4]", "result": 33.0, "unit": "mg/g"}, {"measurement": "Monatin/dry cell weight at run hour 10", "setting": "EmrAB efflux pump; [5]", "result": 16.2, "unit": "mg/g"}, {"measurement": "Monatin/dry cell weight at run hour 15.5", "setting": "EmrAB efflux pump; [5]", "result": 38.0, "unit": "mg/g"}, {"measurement": "Monatin/dry cell weight at run hour 25.6", "setting": "EmrAB efflux pump; [5]", "result": 52.1, "unit": "mg/g"}, {"measurement": "Monatin/dry cell weight at run hour 31", "setting": "EmrAB efflux pump; [5]", "result": 64.2, "unit": "mg/g"}, {"measurement": "Monatin/dry cell weight at run hour 15.5", "setting": "EmrAB efflux pump; [6]", "result": 0.7, "unit": "mg/g"}, {"measurement": "Monatin/dry cell weight at run hour 25.6", "setting": "EmrAB efflux pump; [6]", "result": 6.7, "unit": "mg/g"}, {"measurement": "Monatin/dry cell weight at run hour 31", "setting": "EmrAB efflux pump; [6]", "result": 12.4, "unit": "mg/g"}, {"measurement": "increase in monatin/dcw", "setting": "EmrAB efflux pump; E. coli MG1655::aspCproA pProNde", "result": 2, "unit": "fold"}, {"measurement": "decrease in growth", "setting": "[2]; deletion strain", "result": "eighty fold/ninety nine percent decrease in growth"}, {"measurement": "Optical Density @ 600 nM, 6 hours", "setting": "[2]; emrB knockout mutant", "result": 0.024}, {"measurement": "Optical Density @ 600 nM, 24 hours", "setting": "[2]; emrB knockout mutant", "result": 0.014}, {"measurement": "Optical Density @ 600 nM, 6 hours", "setting": "[3]", "result": 0.034}, {"measurement": "Optical Density @ 600 nM, 24 hours", "setting": "[3]", "result": 1.113}]}, {"smiles": "C[C@@H](N)C(=O)O", "note": "[D-alanine]", "values": [{"measurement": "48 hour Monatin/dry cell wt., Total Monatin", "setting": "[1]", "result": 0.33, "unit": "mg/g"}]}]}
